Tests used:
Assay type in all cases: in vivo
[1] = system: Setaria faberi (SETFA); test: Pre-emergence herbicidal glasshouse test on Setaria faberi; conditions: pre-emergence; 1000 g/h; evaluated after 13 days
In short: (§1)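 Read-out: percentage herbicidal damage 13 days after spraying, given on a five-point scale (5=80-100%, 4=60-79%, 3=40-59%, 2=20-39%, 1=0-19%). Pots of standard soil; application at 1000 g/h, one day post-sowing for pre-emergence, eight days for post-emergence.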

[2] = system: Solanum nigrum (SOLNI); test: Post-emergence herbicidal glasshouse test on Solanum nigrum; conditions: post-emergence; 1000 g/h; evaluated after 13 days
In short: as §1

[3] = system: Ipomoea hederacea (IPOHE); test: Post-emergence herbicidal glasshouse test on Ipomoea hederacea; conditions: post-emergence; 1000 g/h; evaluated after 13 days
In short: as §1

[4] = system: Alopecurus myosuroides (ALOMY); test: Pre-emergence herbicidal glasshouse test on Alopecurus myosuroides; conditions: pre-emergence; 1000 g/h; evaluated after 13 days
In short: as §1

[5] = system: Amaranthus retoflexus (AMARE); test: Post-emergence herbicidal glasshouse test on Amaranthus retoflexus; conditions: post-emergence; 1000 g/h; evaluated after 13 days
In short: as §1

[6] = system: Echinochloa crus-galli (ECHCG); test: Post-emergence herbicidal glasshouse test on Echinochloa crus-galli; conditions: post-emergence; 1000 g/h; evaluated after 13 days
In short: as §1

[7] = system: Amaranthus retoflexus (AMARE); test: Pre-emergence herbicidal glasshouse test on Amaranthus retoflexus; conditions: pre-emergence; 1000 g/h; evaluated after 13 days
In short: as §1

[8] = system: Solanum nigrum (SOLNI); test: Pre-emergence herbicidal glasshouse test on Solanum nigrum; conditions: pre-emergence; 1000 g/h; evaluated after 13 days
In short: as §1

[9] = system: Echinochloa crus-galli (ECHCG); test: Pre-emergence herbicidal glasshouse test on Echinochloa crus-galli; conditions: pre-emergence; 1000 g/h; evaluated after 13 days
In short: as §1

[10] = system: Alopecurus myosuroides (ALOMY); test: Post-emergence herbicidal glasshouse test on Alopecurus myosuroides; conditions: post-emergence; 1000 g/h; evaluated after 13 days
In short: as §1

[11] = system: Setaria faberi (SETFA); test: Post-emergence herbicidal glasshouse test on Setaria faberi; conditions: post-emergence; 1000 g/h; evaluated after 13 days
In short: as §1

[12] = system: Ipomoea hederacea (IPOHE); test: Pre-emergence herbicidal glasshouse test on Ipomoea hederacea; conditions: pre-emergence; 1000 g/h; evaluated after 13 days
In short: as §1

SMILES | PRE Application SETFA herbicidal damage (five point scale) [1] | POST Application SOLNI herbicidal damage (five point scale) [2] | POST Application IPOHE herbicidal damage (five point scale) [3] | PRE Application ALOMY herbicidal damage (five point scale) [4] | POST Application AMARE herbicidal damage (five point scale) [5] | POST Application ECHCG herbicidal damage (five point scale) [6] | PRE Application AMARE herbicidal damage (five point scale) [7] | PRE Application SOLNI herbicidal damage (five point scale) [8] | PRE Application ECHCG herbicidal damage (five point scale) [9] | POST Application ALOMY herbicidal damage (five point scale) [10] | POST Application SETFA herbicidal damage (five point scale) [11] | PRE Application IPOHE herbicidal damage (five point scale) [12]
COCn1ncc(-c2ccc(C(F)(F)F)cc2[S+](C)[O-])c(O)c1=O (stereo not drawn) [Compound 1.146] | 2 (2=20-39% damage) | 5 (5=80-100% damage) | 5 (5=80-100% damage) | 4 (4=60-79% damage) | 5 (5=80-100% damage) | 5 (5=80-100% damage) | 5 (5=80-100% damage) | 5 (5=80-100% damage) | 5 (5=80-100% damage) | 5 (5=80-100% damage) | 5 (5=80-100% damage) | 4 (4=60-79% damage)
Cn1ncc(-n2cc(N3CCOCC3)c(C(F)(F)F)cc2=O)c(O)c1=O [Compound 1.025] | 1 (1=0-19% damage) | 4 (4=60-79% damage) | 2 (2=20-39% damage) | 1 (1=0-19% damage) | 2 (2=20-39% damage) | 1 (1=0-19% damage) | 1 (1=0-19% damage) | 1 (1=0-19% damage) | 1 (1=0-19% damage) | 1 (1=0-19% damage) | 1 (1=0-19% damage) | 1 (1=0-19% damage)
Cn1ncc(-c2ccc([N+](=O)[O-])cc2S(C)(=O)=O)c(O)c1=O [Compound 2.032] | 2 (2=20-39% damage) | 5 (5=80-100% damage) | 5 (5=80-100% damage) | 2 (2=20-39% damage) | 5 (5=80-100% damage) | 5 (5=80-100% damage) | 5 (5=80-100% damage) | 5 (5=80-100% damage) | 5 (5=80-100% damage) | 3 (3=40-59% damage) | 4 (4=60-79% damage) | 3 (3=40-59% damage)
Cn1ncc(-c2cccn(-c3cccc([N+](=O)[O-])c3)c2=O)c(O)c1=O [Compound 1.147] | 2 (2=20-39% damage) | 3 (3=40-59% damage) | 1 (1=0-19% damage) | 1 (1=0-19% damage) | 1 (1=0-19% damage) | 1 (1=0-19% damage) | 2 (2=20-39% damage) | 1 (1=0-19% damage) | 1 (1=0-19% damage) | 1 (1=0-19% damage) | 1 (1=0-19% damage) | 1 (1=0-19% damage)
Cn1nc(N)c(-c2ccc(C(F)(F)F)cc2S(C)(=O)=O)c(O)c1=O [Compound 2.039] | 5 (5=80-100% damage) | 5 (5=80-100% damage) | 5 (5=80-100% damage) | 5 (5=80-100% damage) | 5 (5=80-100% damage) | 5 (5=80-100% damage) | 5 (5=80-100% damage) | 5 (5=80-100% damage) | 5 (5=80-100% damage) | 5 (5=80-100% damage) | 5 (5=80-100% damage) | 5 (5=80-100% damage)
CCn1ncc(-c2ccc(C(F)(F)F)nc2S(C)(=O)=O)c(O)c1=O [Compound 4.001] | 5 (5=80-100% damage) | 5 (5=80-100% damage) | 5 (5=80-100% damage) | 5 (5=80-100% damage) | 5 (5=80-100% damage) | 5 (5=80-100% damage) | 5 (5=80-100% damage) | 5 (5=80-100% damage) | 5 (5=80-100% damage) | 5 (5=80-100% damage) | 5 (5=80-100% damage) | 5 (5=80-100% damage)
Cc1ccc(-c2cnn(C)c(=O)c2O)c(Cl)c1 [Compound 1.098] | 1 (1=0-19% damage) | 3 (3=40-59% damage) | 2 (2=20-39% damage) | 1 (1=0-19% damage) | 2 (2=20-39% damage) | 1 (1=0-19% damage) | 1 (1=0-19% damage) | 1 (1=0-19% damage) | 1 (1=0-19% damage) | 1 (1=0-19% damage) | 1 (1=0-19% damage) | 1 (1=0-19% damage)
Cn1ncc(-n2ccc(C(F)(F)F)c(-c3ccccc3)c2=O)c(O)c1=O [Compound 1.054] | 5 (5=80-100% damage) | 5 (5=80-100% damage) | 4 (4=60-79% damage) | 5 (5=80-100% damage) | 5 (5=80-100% damage) | 5 (5=80-100% damage) | 5 (5=80-100% damage) | 5 (5=80-100% damage) | 5 (5=80-100% damage) | 5 (5=80-100% damage) | 5 (5=80-100% damage) | 3 (3=40-59% damage)

From US9693556B2, “Herbicidal pyridazinone derivatives” (SYNGENTA LIMITED, priority 2011, dated 2017)
